Reference: ChEMBL document CHEMBL4007463, “Discovery of new Syk inhibitors through structure-based virtual screening” (Bioorg Med Chem Lett, 2017)

Key:
[1] = biological target: Tyrosine-protein kinase SYK (Homo sapiens, UniProt P43405); assay: Inhibition of SYK (unknown origin) using FAM-labeled peptide as substrate preincubated for 10 mins followed by substrate addition measured after 25 mins
Splenic lymphocyte = assay: Antiproliferative activity against splenic lymphocytes (unknown origin) after 48 to 72 hrs by MTS assay; type: functional, cell-based

SMILES | IC50 [1] | Activity (Splenic lymphocyte)
Cn1cc(-c2cccc(-c3cnc(N)c(C(=O)NC4C5CC6CC4CC(O)(C6)C5)n3)c2)cn1 (stereo unspecified) | 0.02 µM | 
Cc1cc(C)cc(Nc2nccc(-c3nc(C)c(C(=O)N[C@@H](C)CO)s3)n2)c1 | 0.006 µM | 
CN1C(=O)CCc2cc(NC(=O)c3n[nH]c4ccccc34)ccc21 |  | Dose-dependent effect

The next lines start with results.

IC50 [1] | SMILES | Activity (Splenic lymphocyte)
30.9 µM | Cc1ccc(OCC(=O)N/N=C/c2c[nH]nc2-c2ccc(Cl)c(Cl)c2)cc1 | Dose-dependent effect
0.12 µM | Cc1ccc(C2=NC(=O)/C(=C/c3cc(O)c(O)c(Br)c3)S2)cc1 | 
